These results are taken from patent publication US6013666A, “Oxirane carboxylic acid derivative and its manufacturing method” (Jew; Sang Sup, priority 1996, dated 2000).

For data set [1], the system named is male diabetes-induced Sprague-Dawley rats. Description: Blood glucose lowering effects on streptozotocin diabetes-induced rats. It counts as in vivo. Conditions: Rattus norvegicus; STZ diabetes-induced rats, 50 mg/kg oral; measured at 90, 120 and 180 mins, smallest values taken; read-out: Blood glucose lowering rate %. How it is done: Blood Glucose Lowering Effects of the Compounds Prepared by the Procedures of Example 1~6, 11~18
Two groups of male diabetes-induced Sprague-Dawley rats (each of 4-5 rats weighing about 250 g) were used for this experiment. 45 mg/kg of streptozotocin (STZ) dissolved in 0.1M citrate buffer (pH 4.5, 0-4° C.) was injected to the tail vein of fasted rats for 1 day. After elapse of 7 days, their blood glucose concentration were measured and animals having the blood serum concentration of more than 350 mg/dl were used as diabetes-induced rats for this experiment. The rats were intravenously administered at a daily dose of 1 ml/kg, while the normal control group received equal volume of 0.1M citrate buffer.
7 days after being treated with streptozotocin, diabetes-induced rats were orally administered at a dose of 50 mg/kg of the compounds prepared by the procedures of Examples 1-6, 11~18. Then, at time intervals of 90 mins, 120 mins and 180 mins, their blood glucose concentrations were measured and the smallest values were taken. The compounds of […] were dissolved in 30% ethanol until its final concentration became 2 ml/kg, while the control group was orally received equal volume of 30% ethanol.
Significant difference between two groups was determined by ANOVA test, together with a post hoc test using Newman-Keuls test.

Data set [2] is described as follows: Acute toxicity test on rats, oral. Conditions: rat, in vivo, rats 200-250 g, dissolved in ethylacetate, calculated by number of killed animals. It counts as in vivo. On the procedure: (§1) The acute toxicity tests on rats were performed using the compound prepared by the procedure of the Example 1. Mature rats weighing 200-250 g were orally given the compound of the Example 1 dissolved in ethylacetate in parallel with its gradually increasing concentration.

The next data set relates to Mature rats. Description: Acute toxicity test on rats, oral. It counts as in vivo. Conditions: rats. On the procedure: as §1
For data set [3] the following is noted: phase II clinical trials; cited from earlier work.

On to `CCOC(=O)C1(CCCCCCOC(=O)c2ccc(Cl)cc2)CO1` (stereo not drawn) [Example 1, Ethyl-2-[6-(4-chlorophenylcarboxyl)hexyl]-oxirane-2-carboxylic acid], for which the inhibition in vivo at 50 mg/kg in data set [1] was 11.8%. Further, in data set [2], the LD50 was 487 mg/kg. The “number of killed animals/number of animals per group” value in the data set on Mature rats (dose 160 mg/kg) is on record as 0/10; in the data set on Mature rats (dose 300 mg/kg) it was 1/10; in the data set on Mature rats (dose 400 mg/kg), 2/10; in the data set with Mature rats (dose 500 mg/kg) it was 5/10; in the data set with Mature rats (dose 600 mg/kg), 8/10. For `CCOC(=O)C1(CCCCCCOC(=O)c2cnc(C)cn2)CO1` (stereo not drawn) [Example 2, Ethyl-2-[6-(5-methyl-2-pyrazincarboxyl)hexyl]-oxirane-2-carboxylic acid], in data set [1], the inhibition in vivo at 50 mg/kg is 28.2%. On the same count and under the same terms, under `CCOC(=O)C1(CCCCCCOC(=O)c2cncc(Br)c2)CO1` (stereo not drawn) [Example 3, Ethyl-2-[6-(5-bromo-3-pyridincarboxyl)hexyl]-oxirane-2-carboxylic acid] stands 8.1%; under `CCOC(=O)C1(CCCCCCOC(=O)c2ccc(OC)nc2OC)CO1` (stereo not drawn) [Example 4, Ethyl-2-[6-(2,6-dimethoxy-5-pyridincarboxyl)hexyl]-oxirane-2-carboxylic acid], 21.6%; under `CCOC(=O)C1(CCCCCCOC(=O)c2cccs2)CO1` (stereo not drawn) [Example 5, Ethyl-2-[6-(2-thiophenecarboxyl)hexyl]-oxirane-2-carboxylic acid], 16.8%. On to `CCOC(=O)C1(CCCCCCOC(=O)c2cnccn2)CO1` (stereo not drawn) [Example 6, Ethyl-2-[6-(2-pyrazincarboxyl)hexyl]-oxirane-2-carboxylic acid], for which the inhibition in vivo at 50 mg/kg in data set [1] turned out to be 24.1%.

On to `CCOC(=O)C1(CCCCCCOCc2cccs2)CO1` (stereo not drawn) [Example 11, Ethyl-2-[6-(2-thiophenemethoxy)hexyl]oxirane-2-carboxylic acid], for which the inhibition in vivo at 50 mg/kg in data set [1] was found to be 75.9%. For the compound `CCOC(=O)C1(CCCCCCn2nc(C)cc2C)CO1` (stereo not drawn) [Example 12, Ethyl-2-[6-(3,5-dimethylpyrazole)hexyl]oxirane-2-carboxylic acid], in data set [1], the inhibition in vivo at 50 mg/kg was found to be 47%. On the same count and under the same terms, under `CCOC(=O)C1(CCCCCCOCc2ccc(OC)s2)CO1` (stereo not drawn) [Example 13, Ethyl-2-[6-(5-methoxy-2-thiophenemethoxy)hexyl]oxirane-2-carboxylic acid] stands 5.9%. With `CCOC(=O)C1(CCCCCCOCc2ccc(C)s2)CO1` (stereo not drawn) [Example 14, Ethyl-2-[6-(5-methyl-2-thiophenemethoxy)hexyl]oxirane-2-carboxylic acid], the inhibition in vivo at 50 mg/kg in data set [1] amounted to 33.7%.

For the compound `CCOC(=O)C1(CCCCCCOCc2ccc(C)o2)CO1` (stereo not drawn) [Example 15, Ethyl-2-[6-(5-methyl-2-furanmethoxy)hexyl]oxirane-2-carboxylic acid], the inhibition in vivo at 50 mg/kg in data set [1] is 6.8%. For `CCOC(=O)C1(CCCCCCOCCc2cccs2)CO1` (stereo not drawn) [Example 16, Ethyl-2-[6-(2-thiophenethoxy)hexyl]oxirane-2-carboxylic acid], in data set [1], the inhibition in vivo at 50 mg/kg came to 5.6%. In the case of `CCOC(=O)C1(CCCCCCOCc2ccc(Cl)s2)CO1` (stereo not drawn) [Example 17, Ethyl-2-[6-(5-chloro-2-thiophenemethoxy)hexyl]oxirane-2-carboxylic acid], in data set [1], the inhibition in vivo at 50 mg/kg turned out to be 19.2%. On the same count and under the same terms, under `CCOC(=O)C1(CCCCCCOCc2sccc2Cl)CO1` (stereo not drawn) [Example 18, Ethyl-2-[6-(3-chloro-2-thiophenemethoxy)hexyl]oxirane-2-carboxylic acid] stands 30.7%. On to `CCOC(=O)[C@@]1(CCCCCCOc2ccc(Cl)cc2)CO1` [etomoxir], for which the “side effects associated with prolonged administration” value in data set [3] is “enlarged heart and toxicity in the liver”.

The LD50 is the dose expected to kill half of the subjects tested.
